Earlier results in publication PMC8812516 (Proceedings of the National Academy of Sciences of the …, 2022).

Tested on: Shaker-IR channel

charybdotoxin
effect of inactivation on affinity of toxins: inactivation does not alter the affinity of toxins for that channel
